US12578331B2, “Monolayer of PBMCs or bone-marrow cells and uses thereof” (Mobius Biotechnology GmbH, priority 2014, dated 2026)

Assays:
CD34+ or pSTAT5+ cells = test: Personalized chemotherapy screen in PBMC monolayer of patients with myeloproliferative neoplasm / primary myelofibrosis: viability of CD34+ or pSTAT5+ cells; assay type: cell-based, human
Description: Method: PBMCs were cultured, fixed and stained as to protocol outlined in the above examples. 384-well plates were imaged using automated confocal microscope in 4-separate channels. We stained CD34-APC, pSTAT5-PE, GFP viability maker, and a DNA binding nuclear stain. Patient material was cultured on drugs for 18 hours before the addition of the viability marker. These images contained both clonal blasts (almost all CD34+ cells that are present in the peripheral blood,) activated cells (pSTAT5+ cells,) as well as inherently healthy cells from the same donor. […] PBMCs from peripheral blood of a patient diagnosed with primary myelofibrosis were purified over a ficol destiny gradient as described above following manufacture directions. The cells were plated as to the protocol in this application in 384-well black plastic imaging plates (corning) containing 350 FDA approved drugs in DMSO at 10 uM. The cells were plated at 20.000 cell/well in 50 ul of RPMI supplemented with 5% FCS 0.1% Pen/strep. The cells were incubated overnight and a viability dye was added (fixable live/dead green, Invitrogen following manufacture directions). The cells were fixed and permeablized in PBS containing 2% formaldehyde with 0.1% Tween-x114 for 10 minute at room temperature. The solution was then replaced with PBS containing antibody against CD34 and pSTAT5 (BD biosciences) for 1 hour. The solution was then replaced with PBS containing DAPI at manufacture recommended concentration. The plates were imaged at 10× on an Operetta (PE) automated confocal microscope in four channels using band-pass filter light separation (DAPI, GFP, PE, APC). Using an image analysis pipeline, the sensitivity of the cancer cells (CD34 and pSTAT5 positive) to each drug was compared to the sensitivity on the healthy cells (NOT CD34 and pSTAT5 positive). All results were normalized to the control, DMSO alone.

[1] = tested on: primary myelofibrosis (PMF)-patients; test: Clinical treatment of primary myelofibrosis patients already on Ruxolitinib with added Azacitidine; assay type: in vivo, human
Description: PBMCs from peripheral blood of a patient diagnosed with primary myelofibrosis were purified over a ficol destiny gradient as described above following manufacture directions. The cells were plated as to the protocol in this application in 384-well black plastic imaging plates (corning) containing 350 FDA approved drugs in DMSO at 10 uM. The cells were plated at 20.000 cell/well in 50 ul of RPMI supplemented with 5% FCS 0.1% Pen/strep. The cells were incubated overnight and a viability dye was added (fixable live/dead green, Invitrogen following manufacture directions). The cells were fixed and permeablized in PBS containing 2% formaldehyde with 0.1% Tween-x114 for 10 minute at room temperature. The solution was then replaced with PBS containing antibody against CD34 and pSTAT5 (BD biosciences) for 1 hour. The solution was then replaced with PBS containing DAPI at manufacture recommended concentration. The plates were imaged at 10× on an Operetta (PE) automated confocal microscope in four channels using band-pass filter light separation (DAPI, GFP, PE, APC). Using an image analysis pipeline, the sensitivity of the cancer cells (CD34 and pSTAT5 positive) to each drug was compared to the sensitivity on the healthy cells (NOT CD34 and pSTAT5 positive). All results were normalized to the control, DMSO alone. […]

Nc1ncn([C@@H]2O[C@H](CO)[C@@H](O)[C@H]2O)c(=O)n1 [Azacitidine]
viability of cells stained for CD34 or pSTAT5 (CD34+ or pSTAT5+ cells; MPN patient PBMCs, approximately 350 compounds, 18 hours on drugs, FIG. 6): decreased the viability of cells expressing the biomarkers
titration: viability of CD34+ cells compared to healthy cells and to DMSO (CD34+ or pSTAT5+ cells; same patient, FIG. 7): concentration dependent effects were seen
rank among compounds reducing percentage of viable cells expressing CD34 or pSTAT5 (CD34+ or pSTAT5+ cells; two patients with early PMF or PMF, both treated with Ruxolitinib at the time of Pharmacoscopy, FIG. 10): Top drug or highly enriched drug
number of diseased cells in patient ([1]; patient undergoing treatment using Ruxolitinib, Azacitidine additionally used, FIG. 12D): significantly reduced the number of diseased cells
clinical response of patients ([1]; two PMF patients already on Ruxolitinib (Jakavi) treated with Azacitidine): responding well
